Measured values from patent publication US20090176839A1, “FORMULATIONS OF 3-(6-(1-(2,2-DIFLUOROBENZO[D][1,3]DIOXOL-5-YL) CYCLOPROPANECARBOXAMIDO)-3-METHYLPYRIDIN-2-YL)BENZOIC ACID” (priority 2007, published 2009).
Where two headings read alike, the source gives them in different places.

Legend:
[1] = Toxicokinetics in 14-day oral toxicity study in dogs; conditions: dog, in vivo, 200 mg/kg/day
From the text: There were no major differences noted in TK parameters between males and females, or when comparing study Day 1 to study Day 14.

[2] = Pharmacokinetics in CD-1 mice; assay type: in vivo; conditions: mouse
Experimental: The pharmacokinetics of Compound 1 were assessed in the same species used in the toxicology studies: CD-1 mice, Sprague Dawley rats and beagle dogs. The pharmacokinetics of Compound 1 were also assessed in cynomolgus monkeys.

[3] = biological target: T1, TP receptor (Rattus norvegicus, UniProt P34978); assay: In vitro functional assay of TP receptor function using rat aorta; assay type: cell-based; conditions: read-out: IC50 (TP receptor antagonist)
T1 construct: In an in vitro functional assay of TP receptor function using rat aorta; from tissue; host or cells: rat aorta
T1 sequence (P34978 1-341): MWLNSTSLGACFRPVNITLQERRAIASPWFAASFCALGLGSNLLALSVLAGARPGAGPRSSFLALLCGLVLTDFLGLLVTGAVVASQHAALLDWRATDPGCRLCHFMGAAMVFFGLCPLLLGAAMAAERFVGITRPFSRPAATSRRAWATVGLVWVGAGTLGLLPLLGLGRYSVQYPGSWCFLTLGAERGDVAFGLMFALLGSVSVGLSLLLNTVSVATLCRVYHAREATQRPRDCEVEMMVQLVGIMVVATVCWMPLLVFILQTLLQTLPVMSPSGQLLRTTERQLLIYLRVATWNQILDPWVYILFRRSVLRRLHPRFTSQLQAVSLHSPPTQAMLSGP

[4] = biological target: T2, hERG (Homo sapiens, UniProt Q12809); assay: hERG electrophysiological techniques; assay type: cell-based; conditions: variety of electrophysiological techniques
T2 sequence (Q12809 whole entry): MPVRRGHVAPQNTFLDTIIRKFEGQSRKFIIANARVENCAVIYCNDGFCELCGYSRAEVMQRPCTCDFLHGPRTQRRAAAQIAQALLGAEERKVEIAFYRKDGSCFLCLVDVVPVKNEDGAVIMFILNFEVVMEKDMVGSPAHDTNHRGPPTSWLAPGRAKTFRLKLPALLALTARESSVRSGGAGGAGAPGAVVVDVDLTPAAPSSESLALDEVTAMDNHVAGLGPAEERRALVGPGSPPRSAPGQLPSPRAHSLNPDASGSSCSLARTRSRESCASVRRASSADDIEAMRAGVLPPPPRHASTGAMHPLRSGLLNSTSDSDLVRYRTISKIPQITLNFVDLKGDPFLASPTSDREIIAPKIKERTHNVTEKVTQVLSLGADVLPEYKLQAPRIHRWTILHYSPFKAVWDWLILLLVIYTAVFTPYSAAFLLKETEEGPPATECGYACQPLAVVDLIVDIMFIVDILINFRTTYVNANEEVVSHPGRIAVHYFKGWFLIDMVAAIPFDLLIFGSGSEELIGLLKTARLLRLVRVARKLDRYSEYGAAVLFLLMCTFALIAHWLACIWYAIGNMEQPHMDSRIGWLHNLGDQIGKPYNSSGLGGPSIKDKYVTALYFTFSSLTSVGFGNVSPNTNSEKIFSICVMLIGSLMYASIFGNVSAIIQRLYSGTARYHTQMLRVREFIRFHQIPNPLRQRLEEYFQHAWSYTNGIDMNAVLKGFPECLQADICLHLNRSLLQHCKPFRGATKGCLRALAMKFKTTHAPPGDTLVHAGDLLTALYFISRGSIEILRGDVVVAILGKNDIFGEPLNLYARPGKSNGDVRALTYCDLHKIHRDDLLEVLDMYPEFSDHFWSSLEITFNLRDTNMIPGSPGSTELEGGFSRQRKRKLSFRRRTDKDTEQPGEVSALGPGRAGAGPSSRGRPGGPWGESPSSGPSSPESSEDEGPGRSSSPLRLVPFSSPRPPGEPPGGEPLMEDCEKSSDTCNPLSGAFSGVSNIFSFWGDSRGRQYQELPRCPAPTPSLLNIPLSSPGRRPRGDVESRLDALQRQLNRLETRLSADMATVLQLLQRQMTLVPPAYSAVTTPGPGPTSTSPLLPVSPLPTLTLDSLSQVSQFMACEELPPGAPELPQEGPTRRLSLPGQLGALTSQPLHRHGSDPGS

[5] = in vivo; conditions: dog, po
Experimental: (§2) Repeat-dose oral toxicity studies of 7- and 14-days duration have been conducted in rats (up to 600 mg/kg/day) and dogs (up to 200 mg/kg/day).

[6] = test system: rats; assay: Acute oral toxicity study in rats; conditions: rats; single oral doses 500, 1000 or 2000 mg/kg
Experimental: (§1) The intended clinical route of administration is oral, thus oral toxicity studies were done in mice, rats and dogs. […] Effects of repeat oral dosing were assessed in rats and dogs in preliminary 7-day toxicity studies followed by a 14-day GLP1 toxicity studies.

[7] = Acute oral toxicity study in rats; conditions: rat, in vivo, po
Experimental: as §1

[8] = test system: rats; conditions: rat, in vivo, 14 days
Experimental: as §2

[9] = test system: dogs; conditions: dog, in vivo
Experimental: as §2

[10] = test system: rats; assay: 14-day repeat-dose oral toxicity study in rats; conditions: assuming efficacious dose in rats 2.3 mg/kg b.i.d. (Ctrough at EC90)
Experimental: as §2

[11] = biological target: T2, hERG; assay: hERG channel competitive binding (3H-astemizole); conditions: probe 3H-astemizole

## Cc1ccc(NC(=O)C2(c3ccc4c(c3)OC(F)(F)O4)CC2)nc1-c1cccc(C(=O)O)c1 [Compound 1, 3-(6-(1-(2,2-difluorobenzo[d][1,3]dioxol-5-yl)cyclopropanecarboxamido)-3-methylpyridin-2-yl)benzoic acid]
[1]; both sexes, dogs, at the NOAEL (200 mg/kg/day), read-out: average AUC0-24hr
  AUC(0-t): 645 µg·h/mL
[1]; both sexes, dogs, at the NOAEL (200 mg/kg/day), read-out: average Cmax
  Cmax: 75 µg/mL
[1]; female, beagle, Study Day 1, Female
  Tmax: 4 h
[1]; female, beagle, Study Day 1, Female, read-out: AUC0-24 hr
  AUC(0-t): 573 µg·h/mL
[1]; female, beagle, Study Day 1, Female, read-out: Cmax
  Cmax: 56 µg/mL
[1]; female, beagle, Study Day 14, Female
  Tmax: 3 h
[1]; female, beagle, Study Day 14, Female, read-out: AUC0-24 hr
  AUC(0-t): 720 µg·h/mL
[1]; female, beagle, Study Day 14, Female, read-out: Cmax
  Cmax: 77 µg/mL
[1]; male, beagle, Study Day 1, Male
  Tmax: 3 h
[1]; male, beagle, Study Day 1, Male, read-out: AUC0-24 hr
  AUC(0-t): 691 µg·h/mL
[1]; male, beagle, Study Day 1, Male, read-out: Cmax
  Cmax: 77 µg/mL
[1]; male, beagle, Study Day 14, Male
  Tmax: 3 h
[1]; male, beagle, Study Day 14, Male, read-out: AUC0-24 hr
  AUC(0-t): 598 µg·h/mL
[1]; male, beagle, Study Day 14, Male, read-out: Cmax
  Cmax: 72 µg/mL
[2]
  clearance: very low clearance
[3]
  IC50: 1 to 10 µM
[4]
  IC50: ≥ 30 µM
[5]
  NOAEL at 14 days: 200 mg/kg/day
[6]
  organ weights and gross observations at necropsy: no effects on organ weights and no gross observations
[7]
  MTD at 14 days: > 2000 mg/kg
  NOAEL at 14 days: > 2000 mg/kg
[8]
  human equivalent dose (based on body surface area): at least 95 mg/kg
  human total daily dose equivalent: approximately 5700 mg
  light microscopy of more than 40 organs and tissues: no significant Compound 1 related findings
[8]; po
  dosage tolerated without toxic effects: up to 600 mg/kg/day
[9]
  ECG tracings and opthalmology examinations: within normal limits
  RBC parameters, decreases: 7-14%
  total cholesterol, decreases: 21-29%
  triglycerides, decreases: 44-46%
[9]; 14 days
  light microscopy findings: no significant Compound 1 related findings
[9]; po, 14 days
  dosage tolerated without toxic effect: up to 200 mg/kg/day
[10]
  projected safety margin from the rat NOAEL: 130 ×
[11]
  inhibition at 10 µM: 4%
